According to paper PMC11243693, “Synthesis and Biological Evaluation of New Compounds with Nitroimidazole Moiety” (Molecules, 2024):
In brackets after ≈: the same amount, converted by molar mass.

Key:
Type in all cases: cell-based
[1] = tested on: Bacillus subtilis ATCC 6633; test: Broth microdilution, B. subtilis ATCC 6633; settings: Bs 6633; for MBC/MIC Ratio: <4 bactericidal, ≥4 bacteriostatic
Procedure: (§1) The antibacterial activity of the obtained thiosemicarbazides and hydrazide–hydrazones was determined by evaluating their ability to inhibit microbial growth in vitro using the broth microdilution method, according to the guidelines of the European Committee on Antimicrobial Susceptibility Testing (EUCAST). The method involved the preparation of microbial suspensions with a standardized density of 0.5 on the McFarland scale (equivalent to 1.5 × 10^8 colony-forming units/mL for bacteria and […] for fungi). A solution of the test substances was then prepared (initial concentration 1000 µg/mL, diluted in sterile Mueller-Hinton broth for bacteria or Mueller-Hinton with 2% glucose for fungi). The test was carried out in 96-well polystyrene flat-bottom plates (Medlab, Poland) with 100 µL of appropriate sterile microbiological medium in each well. The first wells were filled with 200 µL of the test substance, diluted to the initial concentration, and then double-decreasing dilutions were made under aseptic conditions using an automatic pipette. The final step was the addition of a 10-fold diluted microbial suspension of 2 µL. At the same time, the following controls were included: (a) medium control (100 µL of sterile medium without microorganisms added), (b) microbial viability control, (c) test substance control (dilutions without added micro-organisms), (d) positive control of the drug used in the clinic. The plates thus prepared were incubated for 18 ± 2 h at 35 ± 2 °C under conditions optimal for the growth of the test microorganisms. After incubation, the spectrophotometric absorbance at 570 nm in each well of the plate was read. The aim of this part of the study was to determine two parameters: the minimum inhibitory concentration (MIC) and the minimum bactericidal or fungicidal concentration (MBC/MFC) of the test compound. […] The MBC value was determined by adding 5 µL of the contents of each well of the plate to solid sterile MHA or MHA + 2%glc medium for bacteria and fungi, respectively. The area on the plate where 99.9% inhibition of microbial growth was observed indicated the lethal concentration. In addition, the quotient MBC(MFC)/MIC could be determined to assess the nature of the activity of the test substance. If MBC(MFC)/MIC was <4, the test substance was bactericidal/fungicidal, whereas if MBC(MFC)/MIC was ≥4, it was bacteriostatic/fungistatic. Amoxicillin (Glentham Life Sciences, USA) and nystatin (Glentham Life Sciences, USA) were used as the controls for this assay.
(§2) The test was performed either on bacteria, comprising: Gram-positive (Staphylococcus aureus ATCC 25923, Staphylococcus aureus ATCC 6538, Staphylococcus aureus ATCC 43300 methicillin-resistant MRSA, Staphylococcus epidermidis ATCC 12228, Micrococcus luteus ATCC 10240, Bacillus subtilis ATCC 6633, Bacillus cereus ATCC 10876) and Gram-negative (Escherichia coli ATCC 25922, Pseudomonas aeruginosa ATCC 27853, Proteus mirabilis ATCC 12453, Klebsiella pneumoniae ATCC 13883) or yeast (Candida parapsilosis ATCC 22019, Candida glabrata ATCC 90030, Candida krusei ATCC 14243, Candida glabrata ATCC 15126, Candida tropicalis ATCC 1369, Candida auris CDC B11903, Candida lusitaniae ATCC 3449) reference strains from the American Type Culture Collection (ATCC) or the Centers for Disease Control and Prevention (CDC).

[2] = tested on: Candida tropicalis ATCC 1369; test: Broth microdilution, C. tropicalis ATCC 1369; settings: Ct 1369
Procedure: as §1, §2

[3] = tested on: Micrococcus luteus ATCC 10240; test: Broth microdilution, M. luteus ATCC 10240; settings: Ml 10240; for MBC/MIC Ratio: <4 bactericidal, ≥4 bacteriostatic
Procedure: as §1, §2

[4] = tested on: Staphylococcus aureus ATCC 6538; test: Broth microdilution, S. aureus ATCC 6538; settings: Sa 6538
Procedure: as §1, §2

[5] = tested on: Staphylococcus aureus ATCC 43300 methicillin-resistant MRSA; test: Broth microdilution, S. aureus ATCC 43300 MRSA; settings: Sa 43300 MRSA
Procedure: as §1, §2

[6] = tested on: Bacillus cereus ATCC 10876; test: Broth microdilution, B. cereus ATCC 10876; settings: Bc 10876; for MBC/MIC Ratio: <4 bactericidal, ≥4 bacteriostatic
Procedure: as §1, §2

[7] = tested on: Candida auris CDC B11903; test: Broth microdilution, C. auris CDC B11903; settings: Ca B11903
Procedure: as §1, §2

[8] = tested on: Candida glabrata ATCC 15126; test: Broth microdilution, C. glabrata ATCC 15126; settings: Cg 15126
Procedure: as §1, §2

[9] = tested on: Staphylococcus aureus ATCC 25923; test: Broth microdilution, S. aureus ATCC 25923; settings: Sa 25923
Procedure: as §1, §2

[10] = tested on: Candida lusitaniae ATCC 3449; test: Broth microdilution, C. lusitaniae ATCC 3449; settings: Cl 3449
Procedure: as §1, §2

[11] = tested on: Candida parapsilosis ATCC 22019; test: Broth microdilution, C. parapsilosis ATCC 22019; settings: Cp 22019
Procedure: as §1, §2

[12] = tested on: Candida krusei ATCC 14243; test: Broth microdilution, C. krusei ATCC 14243; settings: Ck 14243
Procedure: as §1, §2

[13] = tested on: Staphylococcus epidermidis ATCC 12228; test: Broth microdilution, S. epidermidis ATCC 12228; settings: Se 12228; for MBC/MIC Ratio: <4 bactericidal, ≥4 bacteriostatic
Procedure: as §1, §2

[14] = tested on: Candida glabrata ATCC 90030; test: Broth microdilution, C. glabrata ATCC 90030; settings: Cg 90030
Procedure: as §1, §2

MIC [1]	MIC [2]	MIC [3]	MIC [4]	MIC [5]	MIC [6]	MIC [7]	MIC [8]	MIC [10]	MIC [11]	MIC [12]	MIC [14]	SMILES	MBC [1]	MBC/MIC Ratio [1]	MFC [2]	MBC [3]	MBC/MIC Ratio [3]	MBC [5]	MBC [6]	MBC/MIC Ratio [6]	further results
250 µg/mL (≈ 739 µM)	250 µg/mL (≈ 739 µM)	250 µg/mL (≈ 739 µM)	1000 µg/mL (≈ 2960 µM)	1000 µg/mL (≈ 2960 µM)	500 µg/mL (≈ 1480 µM)	>1000 µg/mL	>1000 µg/mL	>1000 µg/mL	1000 µg/mL (≈ 2960 µM)	>1000 µg/mL	>1000 µg/mL	Cn1cc([N+](=O)[O-])nc1C(=O)NNC(=S)Nc1ccccc1F [Compound 6]	500 µg/mL (≈ 1480 µM)	2	>1000 µg/mL	250 µg/mL (≈ 739 µM)	1	>1000 µg/mL	1000 µg/mL (≈ 2960 µM)	2	MBC [4]: >1000 µg/mL; MBC [9]: >1000 µg/mL; MIC [9]: 250 µg/mL (≈ 739 µM); MFC [11]: >1000 µg/mL; MBC [13]: 500 µg/mL (≈ 1480 µM); MIC [13]: 500 µg/mL (≈ 1480 µM); MBC/MIC Ratio [13]: 1
125 µg/mL (≈ 369 µM)	250 µg/mL (≈ 739 µM)	250 µg/mL (≈ 739 µM)	500 µg/mL (≈ 1480 µM)	500 µg/mL (≈ 1480 µM)	500 µg/mL (≈ 1480 µM)	>1000 µg/mL	>1000 µg/mL	>1000 µg/mL	>1000 µg/mL	>1000 µg/mL	>1000 µg/mL	Cn1cc([N+](=O)[O-])nc1C(=O)NNC(=S)Nc1cccc(F)c1 [Compound 7]	250 µg/mL (≈ 739 µM)	2	>1000 µg/mL	250 µg/mL (≈ 739 µM)	1	>1000 µg/mL	500 µg/mL (≈ 1480 µM)	1	MBC [4]: >1000 µg/mL; MBC [9]: >1000 µg/mL; MIC [9]: 250 µg/mL (≈ 739 µM); MBC [13]: >1000 µg/mL; MIC [13]: 250 µg/mL (≈ 739 µM)
250 µg/mL (≈ 739 µM)	250 µg/mL (≈ 739 µM)	250 µg/mL (≈ 739 µM)	>1000 µg/mL	1000 µg/mL (≈ 2960 µM)	500 µg/mL (≈ 1480 µM)	>1000 µg/mL	>1000 µg/mL	>1000 µg/mL	1000 µg/mL (≈ 2960 µM)	>1000 µg/mL	>1000 µg/mL	Cn1cc([N+](=O)[O-])nc1C(=O)NNC(=S)Nc1ccc(F)cc1 [Compound 8]	250 µg/mL (≈ 739 µM)	1	>1000 µg/mL	500 µg/mL (≈ 1480 µM)	2	>1000 µg/mL	1000 µg/mL (≈ 2960 µM)	2	MBC [9]: >1000 µg/mL; MIC [9]: 250 µg/mL (≈ 739 µM); MFC [11]: >1000 µg/mL; MBC [13]: 500 µg/mL (≈ 1480 µM); MIC [13]: 500 µg/mL (≈ 1480 µM); MBC/MIC Ratio [13]: 1

SMILES	MIC [1]	MIC [2]	MIC [3]	MIC [4]	MIC [5]	MIC [6]	MIC [7]	MIC [8]	MIC [10]	MIC [11]	MIC [12]	MIC [14]	MBC [1]	MBC/MIC Ratio [1]	MFC [2]	MBC [3]	MBC/MIC Ratio [3]	MBC [5]	MBC [6]	MBC/MIC Ratio [6]	further results
C[C@@H]1[C@H](O)[C@@H](C)/C=C/C=C/CC/C=C/C=C/C=C/C=C/C(O[C@H]2O[C@H](C)[C@@H](O)[C@H](N)[C@@H]2O)CC2O[C@](O)(CC(O)C(O)CCC(O)CC(O)CC(O)CC(=O)O[C@H]1C)CC(O)C2C(=O)O (some centres unmarked) [NYS, nystatin, reference compound]	–	<0.781 µg/mL	–	–	–	–	6.25 µg/mL (≈ 6.75 µM)	1.56 µg/mL (≈ 1.68 µM)	1.56 µg/mL (≈ 1.68 µM)	12.5 µg/mL (≈ 13.5 µM)	12.5 µg/mL (≈ 13.5 µM)	1.56 µg/mL (≈ 1.68 µM)	–	–	0.5 µg/mL (≈ 0.54 µM)	–	–	–	–	–	MFC [7]: 15.625 µg/mL (≈ 16.9 µM); MFC [8]: 3.125 µg/mL (≈ 3.37 µM); MFC [10]: 3.125 µg/mL (≈ 3.37 µM); MFC [11]: 12.5 µg/mL (≈ 13.5 µM); MFC [12]: 12.5 µg/mL (≈ 13.5 µM); MFC [14]: 3.125 µg/mL (≈ 3.37 µM)
